Measured values from patent US20200390100A1, “SUBSTITUTED N-HETEROCYCLYL- AND N-HETEROARYL-TETRAHYDROPYRIMIDINONES AND THE SALTS THEREOF, AND THE USE OF SAME AS HERBICIDAL ACTIVE SUBSTANCES” (Bayer Aktiengesellschaft, priority 2017, published 2020).
Where two headings read alike, the source gives them in different places.

Assays:
[1] = tested on: Echinochloa crus-galli; assay: Herbicidal pre-emergence action (Part 2), 1280 g/ha; format: in vivo; conditions: application rate 1280 g/ha, scored visually after about 3 weeks, Table D1
Description: (§1) Seeds of mono- and dicotyledonous weed plants were placed in plastic pots in sandy loam soil (doubly sown with in each case one species of mono- or dicotyledonous weed plants per pot) and covered with soil. The compounds of the invention, formulated in the form of wettable powders (WP) or as emulsion concentrates (EC), were then applied onto the surface of the covering soil as aqueous suspension or emulsion with addition of 0.5% additive at a water application rate of 600 liters per hectare (converted). After the treatment, the pots were placed in a greenhouse and kept under good growth conditions for the test plants. After about 3 weeks, the effect of the preparations was scored visually in comparison with untreated controls as percentages. For example, 100% activity=the plants have died, 0% activity=like control plants. Tables D1 to D8 below show the effects of selected compounds of the general formula (I) according to Tables 1.1 to 1.150 on various harmful plants and at an application rate corresponding to 1280 g/ha, which were obtained by the experimental procedure mentioned above.

[2] = biological target: T1, photosystem II (PS II) (Spinacia oleracea, UniProt P69560); assay: Measurement of PS II activity in thylakoid membranes (DCPIP reduction); format: biochemical, spinach; conditions: read-out: Effect
T1 construct: the chloroplasts were osmotically ruptured and the thylakoid membranes were then obtained by centrifugation; from tissue; host or cells: fresh spinach leaves; thylakoid membrane preparation from isolated chloroplasts
Protocol: Cooled fresh spinach leaves were comminuted and homogenized in 50 mM phosphate buffer, pH 6.8. 10 mM KCl, 0.34 M sucrose (sucrose buffer) (blender, 1 g of plant material/ml). The homogenate was subsequently filtered through 4 layers of Miracloth and the chloroplasts were isolated by centrifugation, i.e. 10 min of centrifugation at 4400×g (4° C.). The sediment was suspended in 25 ml of sucrose buffer and re-centrifuged for 10 min at 4400×g (4° C.). The sediment was then suspended in 40 ml of 50 mM phosphate buffer, pH 6.8, 10 mM KCl, without sucrose. In this step, the chloroplasts were osmotically ruptured and the thylakoid membranes were then obtained by centrifugation (10 min, 4400×g, 4° C.). The membrane sediment was finally suspended in about 20 ml of 50 mM phosphate buffer, pH 6.8, 10 mM KCl. Following protein determination and activity determination, the membrane suspension was divided into aliquots and frozen in liquid nitrogen. The aliquots were stored at −80° C. Under these conditions, the photosystem II preparation was storage stable for at least three months. The activity determination of photosystem II (PS II) was then carried out using the following test principle: The electron transfer from PS II to an artificial electron acceptor, 2,6-dichlorophenolindophenol (DCPIP), was measured with exposure to light. The concentration of the blue oxidized form of DCPIP was determined spectrophotometrically at wavelength λ=595 nm. […] The activity determination is carried out in microtiter plates (96 cavities) in a reaction volume of 200 μl. Here, 155 μl of dilute membrane suspension were initially charged in 50 mM of phosphate buffer, pH 6.8, 10 mM KCl. Depending on the activity of the PS II preparation, the dilution was adjusted such that the measurement of the decrease in absorption (λ=595 nm) was linear for at least 10 min. In each case 5 μl solutions of the test compounds of a concentration of 100 μM in DMSO were added to the enzyme suspension; controls contained 5 μl of DMSO; the final concentration of DMSO in the reaction batch was thus 2.5% (v/v); this concentration had no adverse effect on the enzymatic activity. On each microtiter plate, a known PS II inhibitor, for example metribuzin, was used as standard, which allowed the quality of the PS II test to be assessed. The reaction was started by addition of 40 μl DCPIP solution (600 μM in distilled water); the final concentration of DCPIP was 120 μM. Measurement of absorption is carried out over a period of 10 min at 22° C. and with exposure to light. Using metribuzin as comparative substance, the results for the efficacy of the compounds of the general formula (I) at 100 μM are stated in the table below using the following classification: ++++(inhibition≥90%), +++(90%>inhibition≥70%), ++(70%>inhibition≥50%), +(50%>inhibition≥30%).

[3] = tested on: Stellaria media; assay: Pre-emergence herbicidal action, greenhouse, 320 g/ha; format: in vivo; conditions: application rate 320 g/ha, scored visually after about 3 weeks vs untreated controls
Description: (§2) Seeds of monocotyledonous and dicotyledonous weed plants and crop plants were placed in plastic or organic planting pots and covered with soil. The compounds of the invention, formulated in the form of wettable powders (WP) or as emulsion concentrates (EC), were then applied to the surface of the covering soil as aqueous suspension or emulsion with addition of 0.5% additive at a water application rate equivalent to […]. After the treatment, the pots were placed in a greenhouse and kept under good growth conditions for the test plants. After about 3 weeks, the effect of the preparations is scored visually in comparison with untreated controls as percentages. For example, 100% activity=the plants have died, 0% activity=like control plants. Tables B1 to B14 below show the effects of selected compounds of the general formula (I) according to Tables I.1 to I.150 on various harmful plants and at an application rate corresponding to 320 g/ha, which were obtained by the experimental procedure mentioned above.

[4] = tested on: Viola tricolor; assay: as above; format: in vivo; conditions: application rate 320 g/ha, Table B8
Description: as §2

[5] = tested on: Veronica persica; assay: as above; format: in vivo; conditions: application rate 320 g/ha, Table B13
Description: as §2

[6] = tested on: Polygonum convolvulus; assay: as above; format: in vivo; conditions: application rate 320 g/ha, scored visually after about 3 weeks vs untreated controls
Description: as §2

[7] = tested on: Pharbitis purpurea; assay: as above; format: in vivo; conditions: application rate 320 g/ha, Table B12
Description: as §2

[8] = tested on: Digitaria sanguinalis; assay: as above; format: in vivo; conditions: application rate 320 g/ha, Table B9
Description: as §2

[9] = tested on: Matricaria inodora; assay: as above; format: in vivo; conditions: application rate 320 g/ha, scored visually after about 3 weeks vs untreated controls
Description: as §2

[10] = tested on: Alopecurus myosuroides; assay: as above; format: in vivo; conditions: application rate 320 g/ha, scored visually after about 3 weeks vs untreated controls
Description: as §2

[11] = tested on: Amaranthus retroflexus; assay: as above; format: in vivo; conditions: application rate 320 g/ha, scored visually after about 3 weeks vs untreated controls
Description: as §2

[12] = tested on: Setaria viridis; assay: as above; format: in vivo; conditions: application rate 320 g/ha, Table B11
Description: as §2

[13] = tested on: Avena fatua; assay: as above; format: in vivo; conditions: application rate 320 g/ha, scored visually after about 3 weeks vs untreated controls
Description: as §2

[14] = tested on: Hordeum murinum; assay: as above; format: in vivo; conditions: application rate 320 g/ha, Table B14
Description: as §2

[15] = tested on: Abutilon theophrasti; assay: as above; format: in vivo; conditions: application rate 320 g/ha, scored visually after about 3 weeks vs untreated controls
Description: as §2

[16] = tested on: Setaria viridis; assay: Post-emergence herbicidal action, greenhouse, 320 g/ha; format: in vivo; conditions: application rate 320 g/ha, rated visually after about 3 weeks vs untreated controls
Protocol: (§3) Seeds of monocotyledonous and dicotyledonous weeds and crop plants were placed in sandy loam in plastic or wood-fiber pots, covered with soil and cultivated in a greenhouse under controlled growth conditions. 2 to 3 weeks after sowing, the test plants were treated at the one-leaf stage. The compounds of the invention, formulated in the form of wettable powders (WP) or as emulsion concentrates (EC), were then sprayed onto the green parts of the plants as aqueous suspension or emulsion with addition of 0.5% additive at a water application rate of […] (converted). After the test plants had been kept in the greenhouse under optimum growth conditions for about 3 weeks, the activity of the preparations was rated visually in comparison to untreated controls. For example, 100% activity=the plants have died, 0% activity=like control plants. Tables A1 to A14 below show the effects of selected compounds of the general formula (I) according to Tables 1.1 to 1.150 on various harmful plants and at an application rate corresponding to 320 g/ha, which were obtained by the experimental procedure mentioned above.

[17] = tested on: Stellaria media; assay: as above; format: in vivo; conditions: application rate 320 g/ha, rated visually after about 3 weeks vs untreated controls
Protocol: as §3

[18] = tested on: Polygonum convolvulus; assay: as above; format: in vivo; conditions: application rate 320 g/ha, rated visually after about 3 weeks vs untreated controls
Protocol: as §3

[19] = tested on: Pharbitis purpurea; assay: as above; format: in vivo; conditions: application rate 320 g/ha, rated visually after about 3 weeks vs untreated controls
Protocol: as §3

[20] = tested on: Matricaria inodora; assay: as above; format: in vivo; conditions: application rate 320 g/ha, rated visually after about 3 weeks vs untreated controls
Protocol: as §3

[21] = tested on: Amaranthus retroflexus; assay: as above; format: in vivo; conditions: application rate 320 g/ha, rated visually after about 3 weeks vs untreated controls
Protocol: as §3

[22] = tested on: Abutilon theophrasti; assay: as above; format: in vivo; conditions: application rate 320 g/ha, rated visually after about 3 weeks vs untreated controls
Protocol: as §3

[23] = tested on: Viola tricolor; assay: as above; format: in vivo; conditions: application rate 320 g/ha, rated visually after about 3 weeks vs untreated controls
Protocol: as §3

[24] = tested on: Matricaria inodora; assay: Herbicidal pre-emergence action (Part 2), 1280 g/ha; format: in vivo; conditions: application rate 1280 g/ha, scored visually after about 3 weeks, Table D7
Description: as §1

[25] = tested on: Poa annua; assay: as above; format: in vivo; conditions: application rate 1280 g/ha, scored visually after about 3 weeks, Table D3
Description: as §1

[26] = tested on: Abutilon theophrasti; assay: as above; format: in vivo; conditions: application rate 1280 g/ha, scored visually after about 3 weeks, Table D5
Description: as §1

[27] = tested on: Poa annua; assay: Herbicidal post-emergence action (Part 2), 1280 g/ha; format: in vivo; conditions: application rate 1280 g/ha, rated visually after about 3 weeks, Table C2
Protocol: (§4) Seeds of mono- and dicotyledonous weed plants were placed in plastic pots in sandy loam soil (doubly sown with in each case one species of mono- or dicotyledonous weed plants per pot), covered with soil and cultivated in a greenhouse under controlled growth conditions. 2 to 3 weeks after sowing, the test plants were treated at the one-leaf stage. The compounds of the invention, formulated in the form of wettable powders (WP) or as emulsion concentrates (EC), were applied onto the green parts of the plants as aqueous suspension or emulsion with addition of 0.5% additive at a water application rate of 600 liters per hectare (converted). After the test plants had been kept in the greenhouse under optimum growth conditions for about 3 weeks, the activity of the preparations was rated visually in comparison to untreated controls. For example, 100% activity=the plants have died, 0% activity=like control plants. Tables C1 to C7 below show the effects of selected compounds of the general formula (I) according to Tables 1.1 to 1.150 on various harmful plants and at an application rate corresponding to 1280 g/ha, which were obtained by the experimental procedure mentioned above.

[28] = tested on: Amaranthus retroflexus; assay: as above; format: in vivo; conditions: application rate 1280 g/ha, rated visually after about 3 weeks, Table C5
Protocol: as §4

[29] = PS II activity in spinach thylakoid membranes, Table E1

CN1CCC(O)N(c2cc(C(C)(C)C)no2)C1=O (centres unmarked) [I.1-290, 3-(3-tert-Butyl-1,2-oxazol-5-yl)-4-hydroxy-1-methyltetrahydropyrimidin-2(1H)-one]
> 90%: inhibition at 100 µM [2, 29]
90%: Echinochloa crus-galli [1]

CN1CCC(O)N(c2cc(C(F)(F)F)ccn2)C1=O (centres unmarked) [I.1-449, 4-Hydroxy-1-methyl-3-[4-(trifluoromethyl)pyridin-2-yl]tetrahydropyrimidin-2(1H)-one]
80%: Veronica persica (efficacy in %) [5] | Matricaria inodora (efficacy in %) [9]
50 to 70%: inhibition at 100 µM [2, 29]
100%: Stellaria media (efficacy in %) [3] | Viola tricolor (efficacy in %) [4] | Polygonum convolvulus (efficacy in %) [6] | Pharbitis purpurea (efficacy in %) [7] | Digitaria sanguinalis (efficacy in %) [8] | Alopecurus myosuroides (efficacy in %) [10] | Amaranthus retroflexus (efficacy in %) [11]

CSc1nnc(C(C)(C)C)c(=O)n1N [Metribuzin, metribuzin, reference compound]
> 90%: inhibition at 100 µM [2]

CC(=O)OC1CC2CCCN2C(=O)N1c1cc(C(C)(C)C)on1 (centres unmarked) [I.122-162]
80%: Avena fatua (efficacy in %) [13] | Setaria viridis (efficacy in %) [16] | Stellaria media (efficacy in %) [17] | Pharbitis purpurea (efficacy in %) [19]
100%: Setaria viridis (efficacy in %) [12] | Stellaria media (efficacy in %) [3] | Viola tricolor (efficacy in %) [4] | Polygonum convolvulus (efficacy in %) [6] | Pharbitis purpurea (efficacy in %) [7] | Digitaria sanguinalis (efficacy in %) [8] | Matricaria inodora (efficacy in %) [9] | Hordeum murinum (efficacy in %) [14] | Abutilon theophrasti (efficacy in %) [15] | Abutilon theophrasti (efficacy in %) [22]
90%: Alopecurus myosuroides (efficacy in %) [10] | Amaranthus retroflexus (efficacy in %) [11] | Polygonum convolvulus (efficacy in %) [18] | Matricaria inodora (efficacy in %) [20] | Amaranthus retroflexus (efficacy in %) [21]

CC(=O)OC1CC(C)N(C)C(=O)N1c1cc(C(C)(C)C)on1 (single isomer, unassigned) [I.42-162_a]
80%: Setaria viridis (efficacy in %) [16]
100%: Stellaria media (efficacy in %) [17] | Viola tricolor (efficacy in %) [23] | Matricaria inodora (efficacy in %) [20] | Amaranthus retroflexus (efficacy in %) [21] | Abutilon theophrasti (efficacy in %) [22]

CN1CC(C)(C)C(O)N(c2cc(C(C)(C)C)on2)C1=O (centres unmarked) [I.61-162, 1-(5-tert-Butyl-1,2-oxazol-3-yl)-6-hydroxy-3,5,5-trimethyltetrahydropyrimidin-2(1H)-one]
70 to 90%: inhibition at 100 µM [2, 29]
90%: Matricaria inodora [24] | Poa Annua [27]
100%: Poa Annua [25] | Abutilon theophrasti [26] | Amaranthus retroflexus [28]
